Reference: US7632654B2, “Means and methods for detecting endoglycosidase activity” (Academisch Ziekenhuis bij de Universiteit van Amsterdam, priority 2002, dated 2009)

What was measured:
[1] = tested on: bacterial chitinase, 39 and 50 kDa forms of human and mouse chitotriosidase and AMCases, fetal calf serum chitinase; assay: CHIS versus 4-MU-chitobiose as substrate for other chitinases; assay type: biochemical; conditions: in all cases (not shown)
Description: For this purpose, assays were performed with CHIS and 4-MU-chitobiose as substrate with bacterial chitinase (Sigma), purified recombinant 39 and 50 kDa forms of human and mouse chitotriosidase and AMCases and purified fetal calf serum chitinase.

[2] = target: T1, chitotriosidase (Homo sapiens, UniProt Q13231); assay: incubation of pure chitotriosidase with 4-MU-hexosamine and PNP-chitobiose (hydrolysis/transglycosylation); assay type: biochemical; conditions: substrate alone, 50 microM
T1 construct: made in house
T1 sequence (Q13231 22-466): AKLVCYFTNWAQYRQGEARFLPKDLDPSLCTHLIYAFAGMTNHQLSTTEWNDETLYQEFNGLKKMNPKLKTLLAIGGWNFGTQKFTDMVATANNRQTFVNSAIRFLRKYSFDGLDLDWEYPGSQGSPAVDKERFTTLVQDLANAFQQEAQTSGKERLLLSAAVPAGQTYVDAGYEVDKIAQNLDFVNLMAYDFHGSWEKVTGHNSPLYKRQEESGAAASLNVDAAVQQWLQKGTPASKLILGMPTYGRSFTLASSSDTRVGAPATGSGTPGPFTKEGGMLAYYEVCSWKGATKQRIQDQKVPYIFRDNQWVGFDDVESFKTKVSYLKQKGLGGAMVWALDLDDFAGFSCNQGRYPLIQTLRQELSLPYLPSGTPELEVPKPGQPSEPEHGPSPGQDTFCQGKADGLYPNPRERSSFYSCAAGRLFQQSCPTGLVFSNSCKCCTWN
Description: FIG. 2. […] Activity of 50 kDa recombinant human chitotriosidase towards PNPchitobiose, 4MU-hexosamine and a mixture of both substrates. Panel A: incubation 1. Enzyme was incubated with 50 microM PNPchitobiose and the reaction was stopped at indicated time points by adding excess of 0.2 M glycine-NaOH @H1O.3). Release of the hydrolysis product p-nitrophenol was determined spectrometrically at […]. Panel B: incubation 2. Enzyme was incubated with 50 microM 4MU-hexosamine and the reaction was stopped at indicated time points by adding excess of 0.2 M glycine-NaOH (pHlO.3). Release of the hydrolysis product 4-methyl-umbelliferone was determined fluorometrically (excitation at 366 nm; emission at 445 nm). Panel C: incubation 3. Enzyme was incubated with 50 microM PNPchitobiose and 50 microM 4MU-hexosamine and the reaction was stopped at indicated time points by adding excess of 0.2 M glycine-NaOH (pHlO.3). Release of hydrolysis products was measured spectrometrically and fluoremetrically.
FIG. 2A. Transglycosylation by chitotriosidase. Explanation for the outcome of the experiment depictured in FIG. 2. Chitotriosidase is able to remove chitobiose-unit from PNP-chitobiose, resulting in release of PNP that is spectrometrically detected. (FIG. 2 panel A). […]

[3] = tested on: plasma chitotriosidase; assay: plasma chitotriosidase in Gaucher patients following therapeutic interventions; assay type: in vivo, human; conditions: first patients in Europe treated, measured with 4MU-chitotriose, FIG. 7
Excerpt: Besides its use in the confirmation of the diagnosis of Gaucher disease, the measurement of plasma chitotriosidase activity is extremely valuable in decision making regarding initiation of costly therapeutic intervention and optimizing treatment dosing regimens (Aerts et al, 1997; Young et al., 1997; Cox et al., 2000). […] It can be seen that onset of disease can be accurately monitored by monitoring plasma enzyme level. Initiation of therapy results in reductions of the plasma marker of the pathological Gaucher cells. […] In many countries regular measurement of plasma chitotriosidase is now used to monitor response to therapy and increases in plasma chitotriosidase levels are used as a criterion to initiate treatment. The plasma chitotriosidase now plays an important role in the clinical management of Gaucher patients. The European Working Group on Gaucher Disease has recommended its use.
FIG. 7. […] Responses in plasma enzyme level in the first patient in Europe treated with enzyme replacement therapy (aiglucerase) and the first patient in Europe treated with substrate deprivation therapy (butyldeoxynojirimycin). Enzyme activities were measured with 4MU-chitotriose as described in Hollak et al., 1994.

[4] = tested on: plasma chitotriosidase; assay: plasma chitotriosidase in sarcoidosis patients treated with corticosteroids; assay type: in vivo, human; conditions: sarcoidosis patient, orally 25 mg
Description: Sarcoidosis is treated by administration of corticosteroids. Determination of optimal drug dosage is critical but unfortunately also complicated. It was studied whether plasma chitotriosidase levels change upon treatment. […] However, tapering of the dose to 5 mg per day after 17 weeks was followed by recurrence of disease activity while chitotriosidase activity increment preceded the worsening of symptoms. Another interesting finding concerns a patient that was treated with corticosteroid pulse therapy (1000 mg methyiprednisone for three days every 2 weeks). […] This was accompanied by marked clinical improvement.

[5] = tested on: serum chitotriosidase; assay: serum chitotriosidase after G-CSF or GM-CSF in healthy volunteers; assay type: in vivo, human; conditions: parallel to lactoferrin
Description: Neutrophil Activation. To test the potential of chitotriosidase as a marker for the release of specific granules of neutrophils, we examined samples obtained in earlier studies in which granulocyte colony stimulating factor (G-CSF) or granulocyte-macrophage colony stimulating factor (GM-CSF) were administered to healthy volunteers. In these experiments it was previously shown that degranulation of the specific granules of neutrophils occurs. Neutrophils release their specific granule content after 2 hours after G-CSF injection, as detectable by the appearance of lactoferrin in the circulation. […] The increase in lactoferrin and chitotriosidase is not due to an increase in neutrophil cell number, because these levels peak later in time, after about 12 hours. A second peak in lactoferrin and chitotriosidase levels is seen after […] after G-CSF injection.

[6] = tested on: CSF chitotriosidase; assay: CSF chitotriosidase in an MS patient under treatment; assay type: in vivo, human; conditions: one MS patient
Description: Multiple sclerosis (MS) is a presumed T-cell mediated Thi type autoimmune disease. In the pathophysiology of multiple sclerosis (MS) an important role is envisioned for activated T-lymphocytes and macrophages. It is generally thought that macrophages and resident brain microglia are agents of the demyelization that occurs in MS. Chitotriosidase activity was determined in plasma and cerebral spine fluid (CSF) of MS patients. In CSF of patients, but not in plasma, chitotriosidase activity is clearly elevated in relation to manifestation of MS. In a MS patient receiving recombinant beta-1B interferon treatment a concomitant 10-fold reduction in CSF chitotriosidase was noted by us. These findings indicate that chitotriosidase measurement is useful to assess the presence of activated phagocytes in the brain of MS patients and correction therein following treatment.

CC(=O)N[C@H]1[C@H](Oc2ccc3c(C)cc(=O)oc3c2)O[C@H](CO)[C@@H](O[C@@H]2O[C@H](CO)[C@@H](O)[C@H](O)[C@H]2NC(C)=O)[C@@H]1O [4-MU-chitobiose, reference compound]
substrate behaviour with other chitinases [1]: showed apparent substrate inhibition at sub saturating concentrations

CC(=O)N[C@H]1C(Oc2ccc3c(C)cc(=O)oc3c2)O[C@H](CO)[C@@H](O)[C@@H]1O (some centres unmarked) [4-MU-hexosamine, 4-methylumbelliferyl-N-acetyiglucosamine]
substrate of chitotriosidase (release of 4-MU or PNP) [2]: no substrate

CC(=O)N[C@H]1[C@H](Oc2ccc([N+](=O)[O-])cc2)O[C@H](CO)[C@@H](O[C@@H]2O[C@H](CO)[C@@H](O)[C@H](O)[C@H]2NC(C)=O)[C@@H]1O [PNP-chitobiose]
substrate of chitotriosidase (release of 4-MU or PNP) [2]: is a substrate

CCCCN1C[C@H](O)[C@@H](O)[C@H](O)[C@H]1CO [butyldeoxynojirimycin, reference compound]
response in plasma chitotriosidase [3]: Corrections in plasma chitotriosidase

C[C@]12C=CC(=O)C=C1CC[C@@H]1[C@@H]2C(=O)C[C@@]2(C)[C@H]1CC[C@]2(O)C(=O)CO [prednisone]
chitotriosidase activity upon treatment [4]: markedly decreased

B1: G-CSF: granulocyte colony stimulating factor (protein, UniProt P09919 31-207, looked up)
Granulocyte …: TPLGPASSLPQSFLLKCLEQVRKIQGDGAALQEKLVSECATYKLCHPEELVLLGHSLGIPWAPLSSCPSQALQLAGCLSQLHSGLFLYQGLLQALEGISPELGPTLDTLQLDVADFATTIWQQMEELGMAPALQPTQGAMPAFASAFQRRAGGVLVASHLQSFLEVSYRVLRHLAQP
serum chitotriosidase levels [5]: Parallel increases

B2: aiglucerase: enzyme replacement therapy for Gaucher disease (protein, UniProt P04062 40-536, looked up)
Lysosomal acid …: ARPCIPKSFGYSSVVCVCNATYCDSFDPPTFPALGTFSRYESTRSGRRMELSMGPIQANHTGTGLLLTLQPEQKFQKVKGFGGAMTDAAALNILALSPPAQNLLLKSYFSEEGIGYNIIRVPMASCDFSIRTYTYADTPDDFQLHNFSLPEEDTKLKIPLIHRALQLAQRPVSLLASPWTSPTWLKTNGAVNGKGSLKGQPGDIYHQTWARYFVKFLDAYAEHKLQFWAVTAENEPSAGLLSGYPFQCLGFTPEHQRDFIARDLGPTLANSTHHNVRLLMLDDQRLLLPHWAKVVLTDPEAAKYVHGIAVHWYLDFLAPAKATLGETHRLFPNTMLFASEACVGSKFWEQSVRLGSWDRGMQYSHSIITNLLYHVVGWTDWNLALNPEGGPNWVRNFVDSPIIVDITKDTFYKQPMFYHLGHFSKFIPEGSQRVGLVASQKNDLDAVALMHPDGSAVVVVLNRSSKDVPLTIKDPAVGFLETISPGYSIHTYLWRRQ
modifications: mannose-terminated glycans
notes: enzyme replacement therapy for Gaucher disease
response in plasma chitotriosidase [3]: Corrections in plasma chitotriosidase

B3: recombinant beta-1B interferon: recombinant beta-1B interferon treatment of an MS patient (protein, UniProt P01574 22-187, looked up, variant C17S)
Interferon beta: MSYNLLGFLQRSSNFQSQKLLWQLNGRLEYCLKDRMNFDIPEEIKQLQQFQKEDAALTIYEMLQNIFAIFRQDSSSTGWNETIVENLLANVYHQINHLKTVLEEKLEKEDFTRGKLMSSLHLKRYYGRILHYLKAKEYSHCAWTIVRVEILRNFYFINRLTGYLRN
modifications: lacks N-terminal Met, non-glycosylated
notes: recombinant beta-1B interferon treatment of an MS patient
reduction in CSF chitotriosidase [6]: 10 fold
